Laboratory results: publication PMC10996005, “Identification and Development of Cyclic Peptide Inhibitors of Hypoxia Inducible Factors 1 and 2 That Disrupt Hypoxia-Response Signaling in Cancer Cells” (Journal of the American Chemical Society, 2024)
Where a SMILES comes first, the peptide text is derived from it. [ ]: non-standard residue; d: D form. Phe(4-I) = N[C@@H](Cc1ccc(I)cc1)C(=O)O

Columns and labels:
T-Rex-293 cells = test: CytoTox-Glo cytotoxicity / viability assay; assay type: cell-based, human; details: doses up to 75 μM
From the text: Following in vitro characterization and optimization of binding, we next assessed the effect of our cyclic peptides in mammalian cells. A cell line with a stably integrated reporter was constructed, in which the expression of yellow fluorescent protein (YFP) was placed under the control of a HRE. Thus, hypoxia would be expected to increase YFP expression (and subsequent fluorescence) in these cells, whereas treatment with a cell-permeable HIF inhibitor would be expected to reduce this fluorescence signal. A fusion cassette was designed containing the YFP gene preceded by three copies of the HRE sequence. This cassette was stably integrated into T-REx-293 cells as previously described.[12] […] The effect of this compound on the viability of T-Rex-293 was assessed with no effect observed at doses up to 75 μM (Figure S9a). […] It should be noted that the relative activity of each compound in this assay will be a combination of its cell permeability and HIF-inhibiting activity. […] We therefore continued to further characterize the cell activity of the 4-iodo-phenylalanine derivative. […]
Pancreatic cancer cells (PANC-1) were plated in a T75 flask at 80% confluency overnight under normoxic conditions. […] The concentration of the extracted proteins was measured using the BCA Protein Assay Kit (Sigma) following the manufacturer's instructions. […]

[1] = tested on: CAIX and VEGF genes in Panc-1 cells; test: qPCR of hypoxia-response genes in Panc-1 cells; assay type: cell-based; details: hypoxic Panc-1 cells, 50 μM, vs DMSO-treated hypoxic cells
Description: The effect of our lead inhibitor on hypoxia-response signaling was measured by qPCR in cancer cell lines. Cells were treated with either 2 μM of an analogue of the HIF-2-specific inhibitor belzutifan, PT2399 (control), or 50 μM of cyclo-CRLII(4-iodo)F, incubated in hypoxia for […], and the levels of the hypoxia-response genes CAIX([41],[42]) and VEGF([43]) were measured by qPCR. We observed a 51% drop in CAIX transcription and a 43% drop in VEGF transcription in hypoxic MCF-7 (breast cancer) cells treated with 50 μM of cyclo-CRLII(4-iodo)F versus hypoxic MCF-7 cells treated with DMSO only (Figure 6e). […] We also observed a 49% drop in CAIX expression in hypoxic HeLa (cervical cancer) cells treated with cyclo-CRLII(4-iodo)F (Figure S9b). […] We observed a 35% drop in HIF-2-driven VEGF transcription in 786-O cells treated with 50 μM of cyclo-CRLII(4-iodo)F compared to a 50% decrease in 786-O cells treated with PT2399. […]
Realtime PCR (qPCR) Assay
Cells were plated on 6cm dishes at 80% confluency and incubated overnight under normoxic conditions. The cells were then treated with compound and incubated for 18 hours in hypoxic conditions. After treatment, the cells were washed with PBS and lysed under hypoxic conditions. The total RNA was extracted from the cells using a commercial RNA extraction kit (Fisher Scientific) following the manufacturer's instructions. A commercial reverse transcription kit (Promega) was used to generate cDNA. The MyTaq™ Mix master mix and appropriate primers targeting CAIX and VEGF were used to perform the qPCR reaction using a qPCR machine (Bio-Rad).

## CC[C@H](C)[C@@H]1NC(=O)[C@H](CC(C)C)NC(=O)[C@H](CCCNC(=N)N)NC(=O)[C@H](CS)NC(=O)[C@H](Cc2ccc(I)cc2)NC(=O)[C@H]([C@@H](C)CC)NC1=O [cyclo-CRLII(4-iodo)F] (cyclo(CRLII[Phe(4-I)]))
T-Rex-293 cells
  effect on the viability of T-Rex-293: no effect
[1]
  drop in CAIX expression: 41%
  drop in VEGF transcription: 26%
